In patent publication EP0259782A1, “Naphthalene and indane derivatives, medicaments containing these compounds and processes for their preparation” (Dr. Karl Thomae GmbH, priority 1986, dated 1988):

Key:
Herzfrequenz an Ratten = test: Effect on heart rate in anaesthetised rats; format: in vivo; conditions: rats anaesthetised with pentobarbital; dose 5,0 mg/kg injected into the Vena jugularis; 5 minutes after application; control heart rate 350-400 S/min; 2 rats per dose
Description: Wirkung auf die Herzfrequenz an Ratten: Die Wirkung der zu untersuchenden Substanzen auf die Herzfrequenz wurde pro Dosis an 2 Ratten mit einem durchschnittlichen Gewicht von 250-300 g untersucht. Hierzu wurden die Ratten mit Pentobarbital (50 mg/kg i.p. und 10 mg/kg s.c.) narkotisiert. Die zu untersuchenden Substanzen […]ösung in die Vena jugularis injiziert (0,1 ml/100 g). Der Blutdruck wurde über in eine A. carotis eingebundene Kanüle gemessen und die Herzfrequenz wurde aus einem mit Nadelelektroden abgeleiteten EKG (II. oder III. Ableitung) registriert. Die Herzfrequenz der […] 350 und 400 Schlägen/Minuten (S/min).

Mäusen = conditions: in vivo, iv, 10 mg/kg
Source text: Die erfindungsgemäß hergestellten Verbindungen weisen in therapeutischen Dosen keinerlei toxische Nebenwirkungen auf.

Structure (SMILES)	Herzfrequenzsenkung, gemessen 5 Minuten nach Substanzapplikation (Herzfrequenz an Ratten)	toxische Nebenwirkungen (Mäusen)
COc1ccc(CCN(C)CCCC2Cc3cc(OC)c(OC)cc3C2O)cc1OC (centres unmarked) [Substanz C, 5,6-Dimethoxy-2-[3-((2-(3,4-dimethoxyphenyl)-ethyl)-methylamino)-propyl]-1-hydroxy-indan]	152 S/min	außer einer geringen Sedation keine toxischen Nebenwirkungen
COc1ccc(CCN(C)CCCC2CCc3cc(OC)c(OC)cc3C2)cc1OC.Cl (centres unmarked) [Substanz B, 6,7-Dimethoxy-2-[3-((2-(3,4-dimethoxyphenyl)-ethyl)-methylamino)-propyl]-1,2,3,4-tetrahydro-naphthalin-hydrochlorid]	150 S/min	–
COc1ccc(CCN(C)CCCC2CCc3cc(OC)c(OC)cc3C2=O)cc1OC (centres unmarked) [Substanz A, 6,7-Dimethoxy-2-[3-((2-(3,4-dimethoxyphenyl)-ethyl)-methylamino)-propyl]-1-oxo-1,2,3,4-tetrahydro-naphthalin]	157 S/min	außer einer geringen Sedation keine toxischen Nebenwirkungen
